Test results from ChEMBL document CHEMBL1126466, “Chemical synthesis of D-erythro-sphingosine-1-phosphate, and its inhibitory effect on cell motility” (1992).
Where “and” joins values, the source holds several entries; their conditions need not be identical. Identical values can stand only once.

Tests used:
Assay type in all cases: functional, B16/F1
[1] = The compound was tested for inhibitory effect on motility of mouse melanoma B16/Fl cells in an in vitro Matri gel-coated transwell assay system at 1 uM concentration expressed as percent migration
[2] = The compound was tested for inhibitory effect on motility of mouse melanoma B16/Fl cells in an in vitro Matri gel-coated transwell assay system at 0.001 uM concentration expressed as percent migration
[3] = The compound was tested for inhibitory effect on motility of mouse melanoma B16/Fl cells in an in vitro Matri gel-coated transwell assay system at 5 uM concentration expressed as percent migration
[4] = The compound was tested for inhibitory effect on motility of mouse melanoma B16/Fl cells in an in vitro Matri gel-coated transwell assay system at 0.1 uM concentration expressed as percent migration
[5] = The compound was tested for inhibitory effect on motility of mouse melanoma B16/Fl cells in an in vitro Matri gel-coated transwell assay system at 0.01 uM concentration expressed as percent migration
[6] = The compound was tested for inhibitory effect on motility of mouse melanoma B16/Fl cells in an in vitro Matri gel-coated transwell assay system at 1 uM concentration
[7] = The compound was tested for inhibitory effect on motility of mouse melanoma B16/Fl cells in an in vitro Matri gel-coated transwell assay system at 0.001 uM concentration

Compound	Migration [1] [%]	Migration [2] [%]	Migration [3]	Migration [4]	Migration [5]	Migration [6] [%]	Migration [7] [%]
CCCCCCCCCCCCC/C=C/[C@@H](O)[C@@H](N)COP(=O)(O)O	8	122	34% and 41%	6% and 12%	12% and 17%	10	82
CCCCCCCCCCCCC/C=C/[C@@H](O)[C@@H](N)CO [SPHINGOSINE]	78		12%	90%			
